In ChEMBL document CHEMBL4392858, “Synthesis and biological evaluation of novel imidazole nucleosides as potential anti-dengue virus agents” (Bioorg Med Chem, 2019) one finds selectivity ratio, CC50 and IC50 data, which are given here for 7 compounds.

In general, CC50 refers to the concentration giving 50% cytotoxicity. Usually pIC50 stands for the IC50 on a negative log10 scale, so that one unit is a factor of ten.

pIC50: −log10 of the molar value.

Series [1] can be described thus: Selectivity index, ratio of CC50 for cytotoxicity in BHK cells to IC50 for antiviral activity against Dengue virus 1 DGL2 replicon infected in BHK cells. The class given is toxicity, cell-based. Particulars: hamster, read-out: Ratio CC50/IC50.
Series [2] can be described thus: Cytotoxicity in BHK cells assessed as reduction in cell viability incubated for 72 hrs by cell count reagent SF based microplate spectrophotometry. Particulars: cricetinae.
The next series deals with dengue virus type 1. As to the kind of experiment: Antiviral activity against Dengue virus 1 DGL2 replicon infected in BHK cells assessed as inhibition of viral replicon RNA replication incubated for 72 hrs by Gaussia-luciferase reporter gene assay. The series is classed as functional, organism-based. (Replicon systems follow genome replication, usually without infectious particles.)

In the case of `C#Cc1c(C(N)=O)ncn1[C@@H]1S[C@H](CO)[C@@H](O)[C@H]1O`, the selectivity ratio in series [1] was above 3.42. The 50% cytotoxic concentration (CC50) at 72 h in series [2] was above 50 µM. Moreover, in the series on dengue virus type 1, the pIC50 is 4.83.
On the same counts, the results for `C#Cc1c(C#N)ncn1[C@@H]1O[C@H](CO)[C@@H](O)[C@H]1O` are 7.25, 3.99 µM and 6.26.
Taken in the same sequence, the figures for `C#Cc1c(C#N)ncn1[C@@H]1S[C@H](CO)[C@@H](O)[C@H]1O` were above 7.61, above 50 µM and 5.18.
As to `C#Cc1c(C(N)=O)ncn1[C@@H]1[Se][C@H](CO)[C@@H](O)[C@H]1O`, in series [2], the CC50 at 72 h is above 50 µM. The pIC50 in the series on dengue virus type 1 was below 4.70.
Regarding `C#Cc1c(C#N)ncn1[C@@H]1[Se][C@H](CO)[C@@H](O)[C@H]1O`, the selectivity ratio in series [1] was above 2.24. In series [2], the CC50 at 72 h was above 50 µM. The pIC50 in the series with dengue virus type 1 is 4.65.
As to `C#Cc1c(C(N)=O)ncn1[C@@H]1O[C@H](CO)[C@@H](O)[C@H]1O`, the selectivity ratio in series [1] was determined as 4.59. In addition, the CC50 at 72 h in series [2] turned out to be 1.24 µM. The pIC50 in the series with dengue virus type 1 was 6.57.
As to `NC(=O)c1ncn([C@@H]2O[C@H](CO)[C@@H](O)[C@H]2O)n1` [RIBAVIRIN], the selectivity ratio in series [1] turned out to be 7.35. Further, in series [2], the CC50 at 72 h worked out at 49 µM. Further, the pIC50 in the series on dengue virus type 1 was 5.18.
